For one test, the system named is U373 cells. The test can be described thus: MTT cytotoxicity assay, U373 cells. The format is cell-based. The settings on record: Homo sapiens, U373 MG, 72 hours, read-out: Inhibitory concentration 50% (IC50). Here is the method:
FIGS. 1A-1B are graphs that show an anti-tumor effect of nifuroxazide. (FIG. 1A) Cells were treated with indicated concentration of nifuroxazide for 72 hours. Cytotoxicity was measured by using MTT assay. (FIG. 1B) Subcutaneously U87 tumor bearing mice were peritoneally injected with indicated doses of nifuroxazide. Tumor size was measured using calipers at day 7 post nifuroxazide treatment.
In this example, the antitumor effect of nifuroxazide is evaluated in different tumor cells. Cells were treated with nifuroxazide for 72 hours (FIG. 1A). […] To verify the anti-tumor efficacy of nifuroxazide in vivo, animals with subcutaneous U87 tumor implants were injected in the peritoneum with vehicle, 1 mg/kg nifuroxazide and 50 mg/kg nifuroxazide. […] Tumor volume was reduced around 25% and 60% after 7 days treatment with 1 mg/kg nifuroxazide and 50 mg/kg nifuroxazide respectively (FIG. 1B).
Cells were seeded in a 96-well plate at a density of 1×104 (U87). After overnight incubation, cells were treated with only vehicle or indicated MOI of virus or indicated concentration of drugs or reagents. After 2 to 3 days of treatment cell viability was measured by MTT assay (Sigma, Canada) according to the manufacturer's instruction. […] After overnight incubation with lysis buffer, cell viability was measured at 595 nm using a plate reader (Envision 2103 Multilabel reader, Perkin Elmer).
(In general: Tetrazolium assays rely on reduction of a dye to a coloured formazan, in cell work by metabolically active cells.)

Test [1] relates to oHSV-1 (HrR3) in 9L cells. The test can be described thus: oHSV-1 (HrR3) replication in 9L cells, titrated in vero cells. The settings on record: HrR3 MOI-0.1, 48 hours. The format is cell-based, HSV-1. Here is the method: FIGS. 2A-2B contain charts that show the effect of nifuroxazide on replication of oHSV-1. (FIG. 2A) Indicated cells were infected with HrR3 viruses at MOI-0.1. Viruses were harvested at 48 hours post-infected and titrated in vero cells. Data are presented as mean SD, *P<0.05 vs corresponding vehicle treatment. (FIG. 2B) U87 or glio cells were treated with HrR3 at a MOI of 1 and indicated concentration of nifuroxazide for 48 hours. Total DNA was extracted and subjected to qPCR to detect HSV-1 using ICP27 primer. nifuroxazide mediated oHSV-1% increase was represented in the figure.
In this example, the effect of nifuroxazide on oHSV-1 anti-tumor efficacy was evaluated. oHSV-1 infected treated glioma cells were incubated with low concentration of nifuroxazide. Replication increased 27- and 40-fold with 0.5 μM nifuroxazide and 10 μM nifuroxazide treated U87 cells respectively. Similarly, virus replication increased 0.8- and 4.7-fold virus in 9L cells treated with 0.5 μM nifuroxazide and 10 μM nifuroxazide respectively (FIG. 2A).

Test [2] deals with oHSV-1 (G207) in BV2 cells. The test is described as follows: G207 replication in BV2 cells with chemical inhibitors, plaque forming assay. The test is classed as cell-based, HSV-1. Here is the method:
FIG. 12A contains bar graphs showing the results of BV2 cells that were pre-treated with indicated chemical compounds for 1-2 hours and then infected with oHSV-1 at an MOI of 1. Viruses were harvested after 48 hours of oHSV-1 (G207) and indicated chemical inhibitor treatment.
FIG. 12F is a bar graph showing the results of BV2 cells that were pre-treated with indicated chemical compounds for 1-2 hours and then infected with oHSV-1 at an MOI of 1. Viruses were harvested after 48 hours of oHSV-1 (G207) and indicated chemical inhibitor treatment. After 48 hours of treatment with oHSV-1 (G207) and C16, viruses were harvested and titrated by plaque forming assay on vero cells.
U87 (5×104) alone or U87+microglia co-culture (5×104+5×104) or BV2 microglia cells (5×104) alone were seeded into a 24-well plate. After overnight incubation (to allow the cells to attach), cells were pretreated with indicated concentration of NFkB inhibitor, Bay-11 (Santa Cruz, Canada) or an indicated concentration of imidazolo-oxindole derivative C16 (Milipore, Canada) or vehicle for 1-2 hours. The cells were then infected with oHSV-1 (G207 or HrR3) virus at a MOI of 1 in presence of chemical inhibitors for another 2 days. The viruses were harvested and titrated in vero cells by plaque forming assay in 12-well plates by triplicates.
The effects of a PKR inhibitor (C16), a NFkappaB inhibitor (Bay11), and an iNOS inhibitor (aminoguanidine hydrochloride) were tested on G207 replication in BV2 cells (Example 15). […] To verify that C16-mediated viral gene transcriptional augmentation is not due to deletions in ICP34.5 and/or ICP6 in G207, the effect of C16 on wild type (KOS) and ICP6 mutated (HrR3) HSV-1 infected BV2 cells was also examined. […] Finally, whether C16 can overcome this microglia-mediated suppression of viral replication in glioma cells was examined.

A further test has as its system pSTAT3 (Tyr705). The test is described as follows: Western blot of pSTAT3 (Tyr705) in BV2 microglia cells. The test is classed as cell-based, mouse. The settings on record: C16 1 μM. On the procedure: BV2 cells were pre-treated with vehicle or C16 (1 μM) for 2 hours and then incubated with vehicle or oHSV-1 (G207) at an MOI of 1 or oHSV-1 and C16 combination for 24 hours. Total protein was harvested and subjected to western blot assay. β-actin expression was used for loading control (means±SE).
BV2 cells were treated with either vehicle or Lps (1 μg/ml) or Lps (1 μg/ml) with C16 (1 μM) for 24 hours. Total protein was harvested and subjected to western blot assay. β-actin expression was used for loading control (means±SE).
Total protein was harvested with sample buffer (125 mM Tris-HCL, 50% Glycerol, […] and 5% 2-mercaptoethanol) and boiled for 5 minutes. Protein samples were subjected to SDS-PAGE (8% gel), transferred to nitrocellulose membranes and blocked in 5% nonfat milk (Bio Rad) in TBS-Tween 20 (TBS-T) for 1 hour at room temperature. […] Band density was measured by using ImageJ software (NIH, Bethesda, Md.).
For orientation: A western blot detects proteins with antibodies after separation by electrophoresis.

For `O=C(N/N=C/c1ccc([N+](=O)[O-])o1)c1ccc(O)cc1` [nifuroxazide, Benzoic acid, 4-hydroxy-, [(5-nitro-2-furanyl)metylene]hydrazide], the IC50 with U373 cells is roughly 23 µM. In addition, the virus replication increased in test [1] (0.5 μM nifuroxazide) came out at 0.8 fold; in test [1] (10 μM nifuroxazide) it was 4.7 fold.

As to `O=C1Nc2ccc3ncsc3c2/C1=C/c1c[nH]cn1` [C16, 6,8-Dihydro-8-(1H-imidazol-5-ylmethylene)-7H-pyrrolo[2,3-g]benzothiazol-7-one], the enhanced the replication amounted to 9 times in test [2] (1 μM of C16, G207 MOI of 1, 48 hours) and 8 times in test [2] (10 μM of C16, G207 MOI of 1, 48 hours). Besides, the “upregulation of pSTAT3 (Tyr705) induced by oHSV-1” value with pSTAT3 (Tyr705) (G207 MOI of 1, 24 hours) is given as “significantly suppress the upregulation”. For the same compound, the “STAT 3 phosphorylation, LPS treated” value in the test on pSTAT3 (Tyr705) (Lps 1 μg/ml, 24 hours) was “inhibition in STAT 1/3 phosphorylation”.

The record behind these values is US20190307820A1, “COMPOSITIONS AND METHODS OF USING STAT1/3 INHIBITORS WITH ONCOLYTIC HERPES VIRUS” (priority 2016, published 2019).
